Assay results from patent publication US8158794B2, “Hydroxyalkyl substituted imidazoquinoline compounds and methods” (3M Innovative Properties Company, priority 2005, dated 2012).

Tests used:
interferon (α) (IFN-α) = experiment: Cytokine induction in human cells: IFN-α secreted by PBMC (ELISA); assay type: cell-based; conditions: 18 to 24 hours, lowest tested concentration inducing response over 20 pg/mL, median if more than one experiment, read-out: Minimum Effective Concentration (μM) IFN
Excerpt: (§1) An in vitro human blood cell system is used to assess cytokine induction. Activity is based on the measurement of interferon (α) and tumor necrosis factor (α) (IFN-α and TNF-α, respectively) secreted into culture media as described by Testerman et. al. in “Cytokine Induction by the Immunomodulators Imiquimod and S-27609”, Journal of Leukocyte Biology, 58, 365-372 (September, 1995).
(§2) Whole blood from healthy human donors is collected by venipuncture into vacutainer tubes or syringes containing EDTA. Peripheral blood mononuclear cells (PBMC) are separated from whole blood by density gradient centrifugation using HISTOPAQUE-1077 (Sigma, St. Louis, Mo.) or Ficoll-Paque Plus (Amersham Biosciences Piscataway, N.J.). Blood is diluted 1:1 with Dulbecco's Phosphate Buffered Saline (DPBS) or Hank's Balanced Salts Solution (HBSS). Alternately, whole blood is placed in Accuspin (Sigma) or LeucoSep (Greiner Bio-One, Inc., Longwood, Fla.) centrifuge frit tubes containing density gradient medium. The PBMC layer is collected and washed twice with DPBS or HBSS and re-suspended at 4×10^6 cells/mL in RPMI complete. The PBMC suspension is added to 96 well flat bottom sterile tissue culture plates containing an equal volume of RPMI complete media containing test compound.
(§3) The compounds are solubilized in dimethyl sulfoxide (DMSO). The DMSO concentration should not exceed a final concentration of 1% for addition to the culture wells. The compounds are generally tested at concentrations ranging from 30-0.014 μM. Controls include cell samples with media only, cell samples with DMSO only (no compound), and cell samples with reference compound.
(§4) The solution of test compound is added at 60 μM to the first well containing RPMI complete and serial 3 fold dilutions are made in the wells. The PBMC suspension is then added to the wells in an equal volume, bringing the test compound concentrations to the desired range (usually 30-0.014 μM). The final concentration of PBMC suspension is 2×10^6 cells/mL. The plates are covered with sterile plastic lids, mixed gently and then incubated for 18 to 24 hours at 37° C. in a 5% carbon dioxide atmosphere.
(§5) Following incubation the plates are centrifuged for 10 minutes at 1000 rpm (approximately 200×g) at 4° C. The cell-free culture supernatant is removed and transferred to sterile polypropylene tubes. Samples are maintained at −30 to −70° C. until analysis. The samples are analyzed for IFN-α by ELISA and for TNF-α by IGEN/BioVeris Assay.
IFN-α concentration is determined with a human multi-subtype colorimetric sandwich ELISA (Catalog Number 41105) from PBL Biomedical Laboratories, Piscataway, N.J. Results are expressed in pg/mL.
(§6) In total, the data output of the assay consists of concentration values of TNF-α and IFN-α(y-axis) as a function of compound concentration (x-axis).
Analysis of the data has two steps. First, the greater of the mean DMSO (DMSO control wells) or the experimental background (usually 20 pg/mL for IFN-α and 40 pg/mL for TNF-α) is subtracted from each reading. If any negative values result from background subtraction, the reading is reported as “*”, and is noted as not reliably detectable. In subsequent calculations and statistics, “*”, is treated as a zero. Second, all background subtracted values are multiplied by a single adjustment ratio to decrease experiment to experiment variability. The adjustment ratio is the area of the reference compound in the new experiment divided by the expected area of the reference compound based on the past 61 experiments (unadjusted readings). […] The reference compound used is 2-[4-amino-2-ethoxymethyl-6,7,8,9-tetrahydro-α,α-dimethyl-1H-imidazo[4,5-c]quinolin-1-yl]ethanol hydrate (U.S. Pat. No. 5,352,784; Example 91) and the expected area is the sum of the median dose values from the past 61 experiments.
The minimum effective concentration is calculated based on the background-subtracted, reference-adjusted results for a given experiment and compound. […]

[1] = system: tumor necrosis factor (α) (TNF-α); experiment: Cytokine induction in human cells: TNF-α secreted by PBMC (ORIGEN M-Series immunoassay); assay type: cell-based; conditions: 18 to 24 hours, lowest tested concentration inducing response over 40 pg/mL, median if more than one experiment, read-out: Minimum Effective Concentration (μM) TNF
Excerpt: as §1, §2, §3, §4, §5
The TNF-α concentration is determined by ORIGEN M-Series Immunoassay and read on an IGEN M-8 analyzer from BioVeris Corporation, formerly known as IGEN International, Gaithersburg, Md. The immunoassay uses a human TNF-α capture and detection antibody pair (Catalog Numbers AHC3419 and AHC3712) from Biosource International, Camarillo, Calif. Results are expressed in pg/mL.
as §6
Analysis of the data has two steps. First, the greater of the mean DMSO (DMSO control wells) or the experimental background (usually 20 pg/mL for IFN-α and 40 pg/mL for TNF-α) is subtracted from each reading. If any negative values result from background subtraction, the reading is reported as “*”, and is noted as not reliably detectable. In subsequent calculations and statistics, “*”, is treated as a zero. Second, all background subtracted values are multiplied by a single adjustment ratio to decrease experiment to experiment variability. The adjustment ratio is the area of the reference compound in the new experiment divided by the expected area of the reference compound based on the past 61 experiments (unadjusted readings). […]

Compound	melting point [°C]	minimal effective concentration (interferon (α) (IFN-α)) [µM]	minimal effective concentration [1] [µM]
Cc1cccc(-c2ccc3c(c2)nc(N)c2nc(CCO)n(CCCN4CCCC4=O)c23)c1 (hydrate or solvate) [Example 47]	218 to 221		
Nc1nc2cc(-c3ccccc3O)ccc2c2c1nc(CCO)n2CCCN1CCCC1=O (hydrate or solvate) [Example 48]	> 250		
Nc1nc2cc(-c3cncc(CO)c3)ccc2c2c1nc(CO)n2CC1CCCCC1 (hydrate or solvate) [Example 49]	166 to 170		
CC(C)(O)Cn1c(CO)nc2c(N)nc3cc(-c4cccnc4)ccc3c21 (hydrate or solvate) [Example 51]	141 to 143		
Nc1nc2cc(-c3cccnc3)ccc2c2c1nc(CO)n2CC1CCOCC1 [Example 32, [4-Amino-7-pyridin-3-yl-1-(tetrahydro-2H-pyran-4-ylmethyl)-1H-imidazo[4,5-c]quinolin-2-yl]methanol]	260 to 262		
CS(=O)(=O)N1CCC(Cn2c(CO)nc3c(N)nc4cc(-c5cccnc5)ccc4c32)CC1 [Example 34]	196 to 198		
CC(C)NC(=O)N1CCC(Cn2c(CO)nc3c(N)nc4cc(-c5cccnc5)ccc4c32)CC1 [Example 36]	182 to 184		
Nc1nc2cc(-c3cccnc3)ccc2c2c1nc(CO)n2CCCCNC(=O)C1CCCC1 [Example 42]	241 to 242	0.12	3.33
Nc1nc2cc(-c3cccc(C(=O)N4CCCC4)c3)ccc2c2c1nc(CO)n2CC1CCOCC1 [Example 139, [4-Amino-7-[3-(pyrrolidin-1-ylcarbonyl)phenyl]-1-(tetrahydro-2H-pyran-4-ylmethyl)-1H-imidazo[4,5-c]quinolin-2-yl]methanol]	281 to 284		

Continued, in another order:

melting point [°C]	Compound	minimal effective concentration (interferon (α) (IFN-α)) [µM]	minimal effective concentration [1] [µM]
188 to 190	CS(=O)(=O)NCCCCn1c(CO)nc2c(N)nc3cc(-c4cccnc4)ccc3c21 (hydrate or solvate) [Example 38]		
206 to 209	CCCNC(=O)NCCCCn1c(CO)nc2c(N)nc3cc(-c4cccnc4)ccc3c21 (hydrate or solvate) [Example 39]		
211 to 212	CCCC(=O)NCCCCn1c(CO)nc2c(N)nc3cc(-c4cccnc4)ccc3c21 (hydrate or solvate) [Example 40]		
225 to 227	Nc1nc2cc(-c3cccnc3)ccc2c2c1nc(CO)n2CCCCNC(=O)NC1CCCC1 (hydrate or solvate) [Example 41]		
225 to 227	CC(C)C(=O)NCCCCn1c(CO)nc2c(N)nc3cc(-c4cccnc4)ccc3c21 (hydrate or solvate) [Example 43]		
